In patent US11220504B2, “Pyrrolo[3,2-d] pyrimidine derivatives for the treatment of viral infections and other diseases” (JANSSEN SCIENCES IRELAND UNLIMITED COMPANY, priority 2012, dated 2022):

Experiments:
[1] = target: T1, human TLR8 (Homo sapiens, UniProt Q9NR97); assay: TLR8 cellular reporter assay (HEK293, NFκB-luc); type: cell-based; details: HEK293 cells transfected with CMV-TLR8 and NFκB-luc, 6 hours incubation; lowest effective concentration
T1 construct: expressed in transfected cells; host or cells: HEK293 cells, transient transfection with TLR8 plasmid and NFκB-luc plasmid
T1 sequence (Q9NR97 27-1041): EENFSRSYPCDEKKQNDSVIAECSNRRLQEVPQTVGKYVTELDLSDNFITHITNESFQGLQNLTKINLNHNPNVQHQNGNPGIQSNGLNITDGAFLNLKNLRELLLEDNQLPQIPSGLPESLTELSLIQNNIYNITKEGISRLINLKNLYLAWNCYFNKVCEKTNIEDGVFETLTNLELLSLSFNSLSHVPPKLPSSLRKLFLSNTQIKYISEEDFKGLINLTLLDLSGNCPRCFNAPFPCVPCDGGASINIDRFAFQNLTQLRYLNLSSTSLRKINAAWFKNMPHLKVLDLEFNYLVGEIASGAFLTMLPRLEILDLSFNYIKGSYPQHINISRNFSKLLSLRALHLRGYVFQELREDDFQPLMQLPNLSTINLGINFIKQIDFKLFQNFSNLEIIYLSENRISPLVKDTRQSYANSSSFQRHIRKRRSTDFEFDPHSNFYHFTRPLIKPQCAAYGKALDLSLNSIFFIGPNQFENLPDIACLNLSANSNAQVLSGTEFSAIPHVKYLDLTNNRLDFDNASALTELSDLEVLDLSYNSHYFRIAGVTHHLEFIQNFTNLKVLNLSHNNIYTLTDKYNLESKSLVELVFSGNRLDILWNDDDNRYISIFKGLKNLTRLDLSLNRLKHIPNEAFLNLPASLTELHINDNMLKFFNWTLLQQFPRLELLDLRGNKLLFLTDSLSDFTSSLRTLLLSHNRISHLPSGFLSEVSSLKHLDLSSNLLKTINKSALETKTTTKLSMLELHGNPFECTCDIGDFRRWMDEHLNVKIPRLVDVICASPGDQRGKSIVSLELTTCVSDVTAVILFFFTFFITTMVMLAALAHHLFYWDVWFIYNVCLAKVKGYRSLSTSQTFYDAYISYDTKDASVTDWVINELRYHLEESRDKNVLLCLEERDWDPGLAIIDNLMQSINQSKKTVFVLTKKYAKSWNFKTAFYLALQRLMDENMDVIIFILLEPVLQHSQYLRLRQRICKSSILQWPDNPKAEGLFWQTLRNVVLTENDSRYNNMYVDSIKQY
Outline: (§1)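 HEK293 cells transiently transfected with receptor expression vector plus NFκB-luciferase reporter, exposed to compound (added in 4% DMSO) for 6 hours at 37° C, 5% CO2. Luciferase activity measured by luminescence; dose-response curves from quadruplicate measurements.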

[2] = test system: interferon-stimulated responsive elements (ISRE); assay: Activation of ISRE promoter elements by conditioned media from PBMC (HEK-ISREluc); type: cell-based, human; details: Homo sapiens; conditioned media from PBMC transferred to HEK-ISREluc cells, 24 hours; lowest effective concentration; read-out: PBMC LEC
Outline: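 Human PBMCs (≥2 donors, RPMI + 10% human AB serum, 2×10^5 cells/well) incubated overnight with compound; supernatant transferred to HEK293 cells stably carrying pISRE-Luc for 24 h, then luciferase read. LEC = compound concentration on PBMCs giving luciferase signal at least two-fold above assay SD; recombinant IFN-α-2a standard.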

[3] = target: T2, human TLR7 (Homo sapiens, UniProt Q9NYK1); assay: TLR7 cellular reporter assay (HEK293, NFκB-luc); type: cell-based; details: HEK293 cells transfected with CMV-TLR7 and NFκB-luc, 6 hours incubation; lowest effective concentration
T2 construct: expressed in transfected cells; host or cells: HEK293 cells, transient transfection with CMV-TLR7 plasmid and NFκB-luc plasmid
T2 sequence (Q9NYK1 27-1049): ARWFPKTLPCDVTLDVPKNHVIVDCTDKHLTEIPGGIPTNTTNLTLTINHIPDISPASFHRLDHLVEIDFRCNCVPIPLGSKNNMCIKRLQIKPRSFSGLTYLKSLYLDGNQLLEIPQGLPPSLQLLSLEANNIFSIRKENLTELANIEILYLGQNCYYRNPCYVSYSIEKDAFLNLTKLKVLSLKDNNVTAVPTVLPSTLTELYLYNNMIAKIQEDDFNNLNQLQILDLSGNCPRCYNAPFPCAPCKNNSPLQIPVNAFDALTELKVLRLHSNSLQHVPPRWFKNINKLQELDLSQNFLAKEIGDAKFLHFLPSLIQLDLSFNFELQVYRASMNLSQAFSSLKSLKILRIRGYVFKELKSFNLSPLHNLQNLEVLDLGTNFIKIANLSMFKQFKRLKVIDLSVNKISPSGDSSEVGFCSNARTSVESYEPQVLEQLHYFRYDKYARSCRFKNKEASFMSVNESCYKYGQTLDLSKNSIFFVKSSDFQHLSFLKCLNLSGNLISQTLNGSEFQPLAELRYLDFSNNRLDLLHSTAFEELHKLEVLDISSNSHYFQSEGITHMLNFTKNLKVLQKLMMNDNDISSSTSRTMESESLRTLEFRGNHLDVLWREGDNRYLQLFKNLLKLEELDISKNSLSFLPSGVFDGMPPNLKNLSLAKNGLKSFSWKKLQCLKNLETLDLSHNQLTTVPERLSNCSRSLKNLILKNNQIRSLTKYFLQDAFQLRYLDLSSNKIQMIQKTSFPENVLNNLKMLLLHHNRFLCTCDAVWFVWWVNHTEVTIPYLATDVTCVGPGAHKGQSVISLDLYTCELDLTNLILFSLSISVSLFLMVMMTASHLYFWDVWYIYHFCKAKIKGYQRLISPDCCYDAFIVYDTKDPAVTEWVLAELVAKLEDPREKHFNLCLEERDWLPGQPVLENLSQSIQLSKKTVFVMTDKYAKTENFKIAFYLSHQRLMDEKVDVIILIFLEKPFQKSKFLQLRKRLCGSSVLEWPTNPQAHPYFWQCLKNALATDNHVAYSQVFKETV
Outline: as §1

Row | SMILES | TLR8 LEC [1] | TLR7 LEC [3] | minimal effective concentration [2]
1 | Cc1cc(CNc2nc(N)nc3ccn(Cc4cccc(CN5CCCC5)c4)c23)no1 [Compound 153] | >25 µM | 0.05 µM | 0.002 µM
2 | CCC[C@@H](CO)Nc1nc(N)nc2ccn(CC(C)C)c12 [Compound 27] | 0.85 µM | 0.15 µM | 0.17 µM
3 | Cc1cc(CNc2nc(N)nc3ccn(Cc4cn5ccccc5n4)c23)no1 [Compound 157] | >25 µM | 0.03 µM | 0.003 µM
4 | COc1ccnc(Cn2ccc3nc(N)nc(NCc4cc(C)on4)c32)c1OC [Compound 168] | >25 µM | 0.09 µM | 0.011 µM
5 | COCCn1ccc2nc(N)nc(NCc3cc(C4CC4)on3)c21 [Compound 200] | 11.4 µM | 0.17 µM | 0.035 µM
6 | COC[C@H](C)Nc1nc(N)nc2ccn(Cc3csc(C)n3)c12 [Compound 206] | 15 µM | 0.74 µM | 0.129 µM
7 | COc1cc(OC)nc(Cn2ccc3nc(N)nc(NCc4cc(C)on4)c32)n1 [Compound 180] | >25 µM | 0.01 µM | 0.004 µM
8 | CCCC[C@@H](CCO)Nc1nc(N)nc2ccn(Cc3ccc(OC)cc3)c12 [Compound 77] | 2.62 µM | 0.008 µM | 0.002 µM
9 | Cc1nc(CNc2nc(N)nc3ccn(Cc4cnccn4)c23)no1 [Compound 204] | >25 µM | 1.78 µM | 0.188 µM
10 | Cc1cc(CNc2nc(N)nc3ccn(Cc4ncccn4)c23)no1 [Compound 186] | >25 µM | 0.14 µM | 0.035 µM
11 | Cc1cc(CNc2nc(N)nc3ccn(Cc4cccc(C(N)=O)n4)c23)no1 [Compound 172] | >25 µM | 1.40 µM | 0.017 µM
12 | Cc1nc(Cn2ccc3nc(N)nc(NC(C)c4ccccn4)c32)cs1 (stereo not drawn) [Compound 197] | >25 µM | 0.39 µM | 0.04 µM
13 | CCCCNc1nc(N)nc2ccn(CCN3CCOCC3)c12 [Compound 67] | 6.71 µM | 0.056 µM | 0.04 µM
14 | Nc1nc(NCC2CCCO2)c2c(ccn2Cc2ccccn2)n1 (stereo not drawn) [Compound 139] | >25 µM | 1.41 µM | 0.588 µM

More lines, main results first:

Row | TLR8 LEC [1] | TLR7 LEC [3] | SMILES | minimal effective concentration [2]
15 | >25 µM | 8.67 µM | Cc1nc(CNc2nc(N)nc3ccn(Cc4ccccn4)c23)c(C)o1 [Compound 177] | 3.93 µM
16 | >25 µM | 0.83 µM | CC1CC1CNc1nc(N)nc2ccn(Cc3ccccc3)c12 (stereo not drawn) [Compound 46] | 0.17 µM
17 | >25 µM | 0.670 µM | CCOc1ccccc1Cn1ccc2nc(N)nc(NCCOC)c21 [Compound 129] | 0.122 µM
18 | >25 µM | 1.57 µM | CCCCn1ccc2nc(N)nc(NCc3ccccc3)c21 [Compound 83] | 2.3 µM
19 | 12.6 µM | 0.01 µM | COc1cccnc1Cn1ccc2nc(N)nc(NCc3noc(C)n3)c21 [Compound 196] | 0.002 µM
20 | >25 µM | 0.637 µM | COCCNc1nc(N)nc2ccn(Cc3cccc(CN4CCCC4)c3)c12 [Compound 111] | 0.293 µM
21 | >25 µM | 0.26 µM | CCCCNc1nc(N)nc2c(F)cn(Cc3ccccc3)c12 [Compound 93] | 0.12 µM
22 | >25 µM | 2.6 µM | CCCCNc1nc(N)nc2ccn(Cc3cc(F)ccc3Br)c12 [Compound 3] | 1.2 µM
23 | >25 µM | 0.39 µM | Nc1nc(NCc2nccs2)c2c(ccn2Cc2ccccc2)n1 [Compound 60] | 0.33 µM
24 | >25 µM | 7.62 µM | Cn1cnc(CNc2nc(N)nc3ccn(Cc4ccccn4)c23)c1 [Compound 188] | 0.047 µM
25 | 7.93 µM | 0.241 µM | COCCNc1nc(N)nc2ccn(Cc3ncccc3OC)c12 [Compound 115] | 0.079 µM
26 | >25 µM | 0.09 µM | CCCCNc1nc(N)nc2ccn(Cc3ccc(OC)cc3)c12 [Compound 41] | 0.11 µM
27 | 22.02 µM | 0.01 µM | CCC[C@@H](CCO)Nc1nc(N)nc2ccn(Cc3ccccc3F)c12 [Compound 81] | 0.002 µM
28 | 1.7 µM | 0.49 µM | CCCCNc1nc(N)nc2ccn(CCCC)c12 [Compound 8] | 0.15 µM
29 | >25 µM | 5.14 µM | COCc1nc(CNc2nc(N)nc3ccn(Cc4ccccn4)c23)no1 [Compound 208] | 0.402 µM
30 | 2.1 µM | 0.53 µM | CCCCNc1nc(N)nc2ccn(CCC)c12 [Compound 9] | 0.22 µM
31 | >25 µM | 0.02 µM | CCCCNc1nc(N)nc2ccn(Cc3ccccc3OC(F)F)c12 [Compound 161] | 0.009 µM
32 | >25 µM | 0.1687 µM | CCCCNc1nc(N)nc2ccn(Cc3nccc4ccccc34)c12 [Compound 65] | 0.08 µM
33 | 0.71 µM | 0.004 µM | CCCCNc1nc(N)nc2ccn(Cc3ccccc3OC)c12 [Compound 69] | 0.002 µM
34 | >25 µM | 12.8 µM | COCCn1ccc2nc(N)nc(N[C@H](C)c3ccccn3)c21 (single isomer, unassigned) [Compound 151] | 2.58 µM
